# Measured values: the supplement of paper PMC10307832
# Key:
# Assay in all cases: relative viability (nuclei count vs DMSO), 5 days (fraction); higher = more cells survive
# GW-2580 + Palbociclib = compound: COC1=CC=C(C=C1)COC2=C(C=C(C=C2)CC3=CN=C(N=C3N)N)OC [GW-2580] + CC(=O)c1c(C)c2cnc(Nc3ccc(N4CCNCC4)cn3)nc2n(C2CCCC2)c1=O [Palbociclib] (partner 0.5 µM)
# In short: (§1)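 Relative viability is defined as nuclei in treated wells over nuclei in vehicle wells. Duplicate plates were run and medians reported. Lung cancer cell lines in 1536-well plates were dosed by pin tool one day after seeding, with one drug or with a fixed anchor-drug dose plus five library-drug doses (not always all listed) in √10 steps, and nuclei were counted after 5 days.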
# GW-2580 + Foretinib = compound: COC1=CC=C(C=C1)COC2=C(C=C(C=C2)CC3=CN=C(N=C3N)N)OC [GW-2580] + COc1cc2c(Oc3ccc(NC(=O)C4(C(=O)Nc5ccc(F)cc5)CC4)cc3F)ccnc2cc1OCCCN1CCOCC1 [Foretinib] (partner 0.25 µM)
# In short: as §1
# Fedratinib + Trametinib = compound: Cc1cnc(Nc2ccc(OCCN3CCCC3)cc2)nc1Nc1cccc(S(=O)(=O)NC(C)(C)C)c1 [Fedratinib] + CC(=O)Nc1cccc(-n2c(=O)n(C3CC3)c(=O)c3c(Nc4ccc(I)cc4F)n(C)c(=O)c(C)c32)c1 [Trametinib] (partner 0.02 µM)
# In short: as §1
# Fedratinib + Palbociclib = compound: Cc1cnc(Nc2ccc(OCCN3CCCC3)cc2)nc1Nc1cccc(S(=O)(=O)NC(C)(C)C)c1 [Fedratinib] + CC(=O)c1c(C)c2cnc(Nc3ccc(N4CCNCC4)cn3)nc2n(C2CCCC2)c1=O [Palbociclib] (partner 0.5 µM)
# In short: as §1
# Fedratinib + Pictilisib = compound: Cc1cnc(Nc2ccc(OCCN3CCCC3)cc2)nc1Nc1cccc(S(=O)(=O)NC(C)(C)C)c1 [Fedratinib] + CS(=O)(=O)N1CCN(Cc2cc3nc(-c4cccc5[nH]ncc45)nc(N4CCOCC4)c3s2)CC1 [Pictilisib] (partner 1 µM)
# In short: as §1
# Fedratinib + Olaparib = compound: Cc1cnc(Nc2ccc(OCCN3CCCC3)cc2)nc1Nc1cccc(S(=O)(=O)NC(C)(C)C)c1 [Fedratinib] + O=C(c1cc(Cc2n[nH]c(=O)c3ccccc23)ccc1F)N1CCN(C(=O)C2CC2)CC1 [Olaparib] (partner 8 µM)
# In short: as §1
Cell Line,relative viability (GW-2580 + Palbociclib; first compound 0.08 µM),relative viability (GW-2580 + Palbociclib; first compound 0.8 µM),relative viability (GW-2580 + Palbociclib; first compound 2.53 µM),relative viability (GW-2580 + Palbociclib; first compound 8 µM),relative viability (GW-2580 + Foretinib; first compound 0.08 µM),relative viability (GW-2580 + Foretinib; first compound 0.8 µM),relative viability (GW-2580 + Foretinib; first compound 2.53 µM),relative viability (GW-2580 + Foretinib; first compound 8 µM),relative viability (Fedratinib + Trametinib; first compound 0.1 µM),relative viability (Fedratinib + Trametinib; first compound 0.3162 µM),relative viability (Fedratinib + Trametinib; first compound 1 µM),relative viability (Fedratinib + Palbociclib; first compound 0.1 µM),relative viability (Fedratinib + Palbociclib; first compound 0.3162 µM),relative viability (Fedratinib + Palbociclib; first compound 1 µM),relative viability (Fedratinib + Pictilisib; first compound 0.1 µM),relative viability (Fedratinib + Pictilisib; first compound 0.3162 µM),relative viability (Fedratinib + Pictilisib; first compound 1 µM),relative viability (Fedratinib + Olaparib; first compound 0.1 µM),relative viability (Fedratinib + Olaparib; first compound 0.3162 µM),relative viability (Fedratinib + Olaparib; first compound 1 µM)
NCI-H2085,0.507,0.467,0.462,0.438,1,0.895,1.08,0.758,0.598,0.512,0.458,0.447,0.483,0.423,0.361,0.442,0.375,0.73,0.824,0.765
NCI-H2087,0.196,0.274,0.216,0.252,1.21,1.25,1.2,0.937,0.203,0.177,0.213,0.23,0.24,0.258,0.705,1,0.27,0.534,0.49,0.425
NCI-H2126,0.352,0.365,0.335,0.356,1.32,1.13,0.925,1.28,0.493,0.582,0.541,0.319,0.339,0.369,0.489,0.514,0.391,0.927,0.939,0.938
NCI-H2170,0.408,0.451,0.386,0.373,1.05,0.957,0.958,1.04,0.931,0.887,0.847,0.379,0.363,0.344,0.266,0.329,0.221,0.63,0.581,0.562
NCI-H2228,0.793,1.03,0.822,0.843,0.947,0.95,0.879,0.848,0.629,0.306,0.404,0.648,0.53,0.523,0.363,0.432,0.127,0.648,0.631,0.495
NCI-H2347,0.382,0.453,0.451,0.426,0.739,0.885,0.586,1.17,0.252,0.27,0.27,0.37,0.426,0.391,0.584,0.513,0.561,0.551,0.58,0.596
NCI-H2405,0.512,0.546,0.463,0.49,1.04,1.08,0.963,0.958,0.582,0.584,0.57,0.486,0.536,0.463,0.338,0.443,0.34,0.837,0.835,0.802
NCI-H3122,0.207,0.199,0.189,0.195,1.07,0.991,0.982,0.961,0.242,0.205,0.193,0.199,0.184,0.159,0.621,0.551,0.152,0.739,0.632,0.608
PC-3 [JPC-3],0.546,0.567,0.515,0.516,1.06,1.06,0.948,0.865,0.561,0.757,0.655,0.481,0.523,0.542,0.694,0.836,0.56,1.01,1.09,1.01
PC-14,0.653,0.614,0.607,0.473,1.08,1.07,0.924,0.936,0.692,0.871,0.554,0.592,0.58,0.402,0.465,0.606,0.438,0.371,0.324,0.309
RERF-LC-KJ,1.13,1.24,0.988,1.07,0.896,0.911,0.842,0.765,0.787,0.813,0.858,1.01,1.05,1.02,0.431,0.545,0.462,0.895,0.847,0.805
SK-LU-1,0.414,0.459,0.29,0.373,0.823,0.934,0.708,0.816,0.498,0.454,0.479,0.393,0.317,0.34,0.514,0.489,0.285,0.407,0.361,0.341
SK-MES-1,0.36,0.322,0.281,0.318,1.03,0.934,0.962,0.915,0.547,0.581,0.476,0.339,0.32,0.271,0.314,0.38,0.283,0.806,0.654,0.479
SW 1573,0.439,0.38,0.397,0.408,1.02,1.02,1.02,0.852,0.489,0.538,0.402,0.41,0.373,0.302,0.444,0.391,0.463,0.539,0.502,0.474
